Tests used:
Test in all cases: biochemical
Assay type in all cases: binding
468 kinases [1] = target: 468 kinases (Homo sapiens, UniProt Q86UX6); conditions: YANK3; read-out: % Inhibition @ 100 nM
468 kinases [2] = target: 468 kinases (Homo sapiens, UniProt Q96D53); conditions: ADCK4; read-out: % Inhibition @ 100 nM
468 kinases [3] = target: 468 kinases (Homo sapiens, UniProt Q9BQI3); conditions: EIF2AK1; read-out: % Inhibition @ 100 nM
468 kinases [4] = target: 468 kinases (Homo sapiens, UniProt P36888, D835Y); conditions: FLT3(D835Y); read-out: % Inhibition @ 100 nM
468 kinases [5] = target: 468 kinases (Homo sapiens, UniProt Q9UPZ9); conditions: ICK; read-out: % Inhibition @ 100 nM
468 kinases [6] = target: 468 kinases (Homo sapiens, UniProt Q9C098); conditions: DCAMKL3; read-out: % Inhibition @ 100 nM
468 kinases [7] = target: 468 kinases (Homo sapiens, UniProt Q5VT25); conditions: MRCKA; read-out: % Inhibition @ 100 nM
468 kinases [8] = target: 468 kinases (Homo sapiens, UniProt Q9HC98); conditions: NEK6; read-out: % Inhibition @ 100 nM
468 kinases [9] = target: 468 kinases (Homo sapiens, UniProt P53350); conditions: PLK1; read-out: % Inhibition @ 100 nM
468 kinases [10] = target: 468 kinases (Homo sapiens, UniProt Q13976); conditions: PRKG1; read-out: % Inhibition @ 100 nM
468 kinases [11] = target: 468 kinases (Homo sapiens, UniProt Q86Z02); conditions: HIPK1; read-out: % Inhibition @ 100 nM
468 kinases [12] = target: 468 kinases (Homo sapiens, UniProt P51617); conditions: IRAK1; read-out: % Inhibition @ 100 nM
468 kinases [13] = target: 468 kinases (Homo sapiens, UniProt Q9NYL2); conditions: ZAK; read-out: % Inhibition @ 100 nM
468 kinases [14] = target: 468 kinases (Homo sapiens, UniProt P00533, DEL752-759); conditions: EGFR(S752-1759del); read-out: % Inhibition @ 100 nM
468 kinases [15] = target: 468 kinases (Homo sapiens, UniProt P36888, D835H); conditions: FLT3(D835H); read-out: % Inhibition @ 100 nM
468 kinases [16] = target: 468 kinases (Homo sapiens, UniProt P07949, V804L); conditions: RET(V804L); read-out: % Inhibition @ 100 nM
468 kinases [17] = target: 468 kinases (Homo sapiens, UniProt Q16288); conditions: TRKC; read-out: % Inhibition @ 100 nM
468 kinases [18] = target: 468 kinases (Homo sapiens, UniProt Q6ZN16); conditions: MAP3K15; read-out: % Inhibition @ 100 nM
468 kinases [19] = target: 468 kinases (Plasmodium falciparum, UniProt P61075); conditions: PFPK5 (P.falciparum); read-out: % Inhibition @ 100 nM
468 kinases [20] = target: 468 kinases (Homo sapiens, UniProt Q9NY57); conditions: YANK2; read-out: % Inhibition @ 100 nM
468 kinases [21] = target: 468 kinases (Homo sapiens, UniProt O43293); conditions: DAPK3; read-out: % Inhibition @ 100 nM
468 kinases [22] = target: 468 kinases (Homo sapiens, UniProt Q9UHD2); conditions: TBK1; read-out: % Inhibition @ 100 nM
468 kinases [23] = target: 468 kinases (Homo sapiens, UniProt O43283); conditions: LZK; read-out: % Inhibition @ 100 nM
468 kinases [24] = target: 468 kinases (Homo sapiens, UniProt Q07912); conditions: TNK2; read-out: % Inhibition @ 100 nM
468 kinases [25] = target: 468 kinases (Homo sapiens, UniProt P49761); conditions: CLK3; read-out: % Inhibition @ 100 nM
468 kinases [26] = target: 468 kinases (Homo sapiens, UniProt Q13177); conditions: PAK2; read-out: % Inhibition @ 100 nM
468 kinases [27] = target: 468 kinases (Homo sapiens, UniProt O15197); conditions: EPHB6; read-out: % Inhibition @ 100 nM
468 kinases [28] = target: 468 kinases (Homo sapiens, UniProt Q9UKE5); conditions: TNIK; read-out: % Inhibition @ 100 nM
468 kinases [29] = target: 468 kinases (Homo sapiens, UniProt P36894); conditions: BMPR1A; read-out: % Inhibition @ 100 nM
468 kinases [30] = target: 468 kinases (Homo sapiens, UniProt Q9NRM7); conditions: LATS2; read-out: % Inhibition @ 100 nM
468 kinases [31] = target: 468 kinases (Homo sapiens, UniProt P24941); conditions: CDK2; read-out: % Inhibition @ 100 nM
468 kinases [32] = target: 468 kinases (Homo sapiens, UniProt P43403); conditions: ZAP70; read-out: % Inhibition @ 100 nM
468 kinases [33] = target: 468 kinases (Homo sapiens, UniProt Q9Y2I7); conditions: PIKFYVE; read-out: % Inhibition @ 100 nM

SMILES | inhibition at 0.1 µM (468 kinases [1]) | inhibition at 0.1 µM (468 kinases [2]) | inhibition at 0.1 µM (468 kinases [3]) | inhibition at 0.1 µM (468 kinases [4]) | inhibition at 0.1 µM (468 kinases [5]) | inhibition at 0.1 µM (468 kinases [6]) | inhibition at 0.1 µM (468 kinases [7]) | inhibition at 0.1 µM (468 kinases [8]) | inhibition at 0.1 µM (468 kinases [9]) | inhibition at 0.1 µM (468 kinases [10]) | inhibition at 0.1 µM (468 kinases [11]) | inhibition at 0.1 µM (468 kinases [12]) | inhibition at 0.1 µM (468 kinases [13]) | inhibition at 0.1 µM (468 kinases [14]) | inhibition at 0.1 µM (468 kinases [15]) | inhibition at 0.1 µM (468 kinases [16]) | inhibition at 0.1 µM (468 kinases [17]) | inhibition at 0.1 µM (468 kinases [18]) | inhibition at 0.1 µM (468 kinases [19]) | inhibition at 0.1 µM (468 kinases [20]) | other results
CCN(CC)CCNC(=O)c1c(C)[nH]c(/C=C2\C(=O)Nc3ccc(CCC(N)=O)cc32)c1C [Compound No. 16, (Z)-5-((5-(3-Amino-3-oxopropyl)-2-oxoindolin-3-ylidene)methyl)-N-(2-(diethylamino)ethyl)-2,4-dimethyl-1H-pyrrole-3-carboxamide] | 0% | 0% | 42% | 100% | 88% | 88% | 9% | 0% | 28% | 14% | 92.6% | 96.9% | 10% | 19% | 92.9% | 86% | 63% | 71% | 40% | 0% | inhibition at 0.1 µM (468 kinases [21]): 21%; inhibition at 0.1 µM (468 kinases [22]): 58%; inhibition at 0.1 µM (468 kinases [23]): 61%; inhibition at 0.1 µM (468 kinases [24]): 20%; inhibition at 0.1 µM (468 kinases [25]): 10%; inhibition at 0.1 µM (468 kinases [26]): 0%; inhibition at 0.1 µM (468 kinases [27]): 34%; inhibition at 0.1 µM (468 kinases [28]): 55%; inhibition at 0.1 µM (468 kinases [29]): 0%; inhibition at 0.1 µM (468 kinases [30]): 13%; inhibition at 0.1 µM (468 kinases [31]): 7%; inhibition at 0.1 µM (468 kinases [32]): 60%; inhibition at 0.1 µM (468 kinases [33]): 27%
CCN(CC)CCNC(=O)c1c(C)[nH]c(/C=C2\C(=O)Nc3ccc(CCO)cc32)c1C [Compound No. 10, (Z)—N-(2-(Diethylamino)ethyl)-5-((5-(2-hydroxyethyl)-2-oxoindolin-3-ylidene)methyl)-2,4-dimethyl-1H-pyrrole-3-carboxamide] | 22% | 0% | 0% | 100% | 0% | 73% | 3% | 19% | 0% | 0% | 56% | 99.3% | 10% | 14% | 91.7% | 91.1% | 60% | 0% | 0% | 1% | inhibition at 0.1 µM (468 kinases [21]): 5%; inhibition at 0.1 µM (468 kinases [22]): 57%; inhibition at 0.1 µM (468 kinases [23]): 0%; inhibition at 0.1 µM (468 kinases [24]): 0%; inhibition at 0.1 µM (468 kinases [25]): 5%; inhibition at 0.1 µM (468 kinases [26]): 0%; inhibition at 0.1 µM (468 kinases [27]): 0%; inhibition at 0.1 µM (468 kinases [28]): 86%; inhibition at 0.1 µM (468 kinases [29]): 0%; inhibition at 0.1 µM (468 kinases [30]): 4%; inhibition at 0.1 µM (468 kinases [31]): 0%; inhibition at 0.1 µM (468 kinases [32]): 6%; inhibition at 0.1 µM (468 kinases [33]): 6%
